One series concerns HIV. To be noted: MT-4 cells; Mekkawy et al. 2000; cited from earlier work.
The nature of series [1]: Dose ranging study: toxicity and side effects of different TPA doses administered clinically by i.v. infusion. The format is in vivo, human. The procedure:
TPA solution in a sterile syringe was injected into 200 ml of sterile saline and mixed well for i.v. infusion.
One mg TPA in solution was mixed well with 200 ml of sterile saline for intravenous infusion which was completed in 1 h at the rate of 16 μg/min. […] The above symptoms could be alleviated by giving the patients glucocorticoids. […] However, these side effects were short lived and reversible.
0.5 mg of TPA in solution was mixed well with 200 ml of saline for intravenous infusion which was completed in 1 h at the rate of 8 μg/min. […] Difficulty in breathing was not observed. The cardiac, hepatic, renal and pulmonary functions were all normal.
0.25 mg of TPA in solution was mixed well with 200 ml of saline for intravenous infusion which was completed in 1 h at the rate of 4 μg/min. […] The cardiac, hepatic, renal and pulmonary functions were all normal.

For series [2] the following is noted: patients with bone marrow function depressed by chemotherapy; Han et al. 1998; cited from earlier work.
For series [3] the following is noted: polar organic solvents and water; cited from earlier work.
Setting [4] is: 0.25 mg/patient x 4/week, i.v. infusion.
The mark [5] stands for this setting: 0.5 mg/patient x 2/week, i.v. infusion.
[6] abbreviates: 1 mg/patient/week, i.v. infusion.
Where [7] appears, read: 1 mg/patient/week, i.v. infusion in 1 h at 16 μg/min.

On to `CCCCCCCCCCCCCC(=O)O[C@@H]1[C@@H](C)[C@@]2(O)[C@@H](C=C(CO)C[C@]3(O)C(=O)C(C)=C[C@@H]23)[C@@H]2C(C)(C)[C@]12OC(C)=O` (stereo in doubt) [TPA, 12-O-tetradecanoylphorbol-13-acetate], for which, in the series on HIV, the HIV-cytopathic effects result was “inhibit the HIV-cytopathic effects on MT-4 cells”. In series [1] (setting [4]), the “Hb in the urine” value is on record as “No Hb was detected in the urine”; the “cardiac, hepatic, renal and pulmonary functions” value (shortened to “cardiac, hepatic”) is reported as “all normal”; the difficulty in breathing result is “no patient suffered difficulty in breathing”. The “symptoms such as chills and fever” value in series [1] (0.25 mg/patient x 4/week, i.v. infusion in 1 h at 4 μg/min) is reported as “also observed, but to a much lesser extent than with the higher dosages”. Moreover, in series [1] (setting [5]), the “Hb in the urine” value is “Occasionally, Hb was detected in patients' urine”; the “cardiac, hepatic” value is given as “all normal”; the difficulty in breathing entry is “not observed”; the tolerability entry is recorded as “tolerated the lower dose more easily”. Moreover, in series [1] (setting [6]), the “Hb in the urine” value was “Hb was detected in the urine”; the bleeding result was “caused a minority of patients to bleed”; the “cardiac, hepatic” value is listed as “all found to be normal”; the difficulty in breathing entry was “several patients suffered for a short period of time difficulty in breathing”. Besides, in series [1] (setting [7]), the duration of chills result is listed as “about 30 min”, the duration of fever fell in the range of 3 to 5 h, the “fever: patients' temperature reached” value is 37.5-39.5 °C and the “onset of chills after TPA administration” value is “One hour after TPA administration”. Moreover, the local irritation result in series [1] (TPA application (reason for giving it by i.v. infusion)) was “strong local irritation”. Also, the “circulating white blood cells and neutrophils” value in series [2] was “cause an increase in circulating white blood cells and neutrophils”.
Turning to `CC1=C[C@H]2[C@@]3(O)[C@H](C)[C@@H](O)[C@]4(O)[C@H]([C@@H]3C=C(CO)C[C@]2(O)C1=O)C4(C)C` [Phorbol], the solubility entry in series [3] was “well soluble in most polar organic solvents and in water”.

The values above are taken from patent US20190350889A1, “Compositions And Methods Of Use Of Phorbol Esters In The Treatment Of Parkinson's Disease” (priority 2016, published 2019).
